In assay [1] the test system is bovine aortic endothelial cells. The assay can be described thus: Effect of peptides on adherent bovine aortic endothelial cells on fibronectin or collagen. Format: cell-based. The settings on record: 0.1M biotinylated peptide, 1 hour; cells adhered four hours on fibronectin or collagen. The procedure:
Peptides from the phage display project were added to bovine aortic endothelial cells in culture. The endothelial cells had adhered to a surface coated with collagen or with fibronectin.
Experiment 1: Bovine aortic endothelial cells were plated on glass slides that were coated either fibronectin or collagen. The cell density was 5,000 cells/well. After the cells adhered for four hours, 0.1M of biotinylated peptide was added to each well. The following peptides were used: L1, L2, L5, L6, L7, L12, L13, L14, L19, R1, R3, and R8.
To perform this experiment, the media was removed and the cells were rinsed with 1×PBS plus 1% BSA three times. Peptides were diluted in 1×PBS plus 1% BSA, added to cells and incubated for 1 hour. The cells were rinsed three times with 1% BSA in PBS, and fixed with 2% parafomaldehyde. Aldehyde groups were blocked with 0.2 M HCl-glycine in PBS, the cells were rinsed three times with 1% BSA in PBS and ExtrAvidin-FITC (1:200 dilution) was added and incubated overnight at 4° C. The cells were rinsed three times with 1% BSA in PBS. The chambers and the gasket were removed from each slide, Vectashield was added, covered and viewed on a Nikon microscope. Images were acquired using a Coolsnap digital camera and Metavue software. […]
Experiment 3: The cells were adherent for about 6 hours and peptides at various concentrations were added to the cells. The concentrations of each of the peptides used in this experiment were: 0.1M, 0.01M, 0.001M and 0.0001M biotinylated peptide. The following peptides were tested: L1, L5, L6, L7, L13, L14, R1, R3, R8, DIP1 and PBS control (SEQ ID NOs:1, 3, 4, 5, 8, 9, 11, 13, 14, and 29).

The next assay relates to bone and bone marrow. The assay can be described thus: In vivo biopanning with 12-mer peptide phage display library. Set-up: species or system BALB/c mice. The conditions noted are these: for PERCENT FREQUENCY: phage eluted from bone and bone marrow; for PHAGE SEQUENCE FREQUENCY (number of times the sequence was found in a group of plaques): phage eluted from bone and bone marrow after repeated rounds. The source says:
The Ph.D.-12 Phage Display Peptide Library Kit (New England Biolabs, Beverly, Mass.) used in this study is based on a combinatorial library of random peptide 12-mers fused to a minor coat protein (pIII). […] The peptide is followed by a short spacer of four amino acid residues, the first three residues of which are glycine and the fourth of which is serine, and then the wild-type III sequence. The library consists of approximately 2.7×10^9 electroporated sequences, amplified once to yield approximately 55 copies of each sequence.
For in vivo biopanning, BALB/c mice 8 weeks of age were injected 3.4×10^10 pfu of phage into the heart. The animals were euthanized after 5 minutes, and the tissues (bone, bone marrow, kidney, liver, and spleen) were collected for analysis. The bound phage was eluted according the manufacturer's instructions. The eluted phage was titered, amplified, purified, and injected again at the same concentration.
The frequency of each peptide in bone and bone marrow was compared with its location in other tissues such as liver, kidney, lung, spleen, and brain. Thirteen unique peptide sequences eluted from bone and marrow were identified were identified by sequencing phage DNA. The peptides were synthesized using the polystyrene solid support on a Protein Technologies Symphony Multiple Channel Synthesizer.

Assay [2] concerns Unicortical femoral defects. As to the kind of experiment: Peptide-mediated osteogenesis in cortical bone defects (Example 8). In kind it is in vivo, Fisher 344 rats. The conditions noted are these: 100 mM peptide in gelfoam, two weeks postoperatively; for Effectiveness at stimulating osteogenesis and cortical bone repair: versus gelfoam+PBS. The procedure: In an in vivo study, all 13 peptides at a concentration of 100 mM were tested for their ability to potentiate osteogenesis. A gelfoam cylinder 1.5 mm in diameter 2 mm in length was used as carrier for the peptides. Unicortical femoral defects 1.5 mm in diameter were created bilaterally in Fisher 344 rats; the left femoral defect was filled with gelfoam+PBS (Control), and the right femur with gelfoam+peptide. The samples were harvested and examined two weeks postoperatively. To examine the effect of peptide concentration on cortical bone regeneration, peptide L7 (SEQ ID NO:5) was used at 1, 5, and 20 mM. […] The time course of cortical bone repair with 20 mM L7 was examined at 5, 10, 15, and 20 days.

As to “LEU-PRO-TRP-THR-GLU-PRO-SER-PHE-TRP-ARG-THR-PRO-GLY-GLY-GLY-SER (LPWTEPSFWRTPGGGS; homo sapiens) [Peptide D1P1]”, the “Effect on adherent BAEC (Experiment 1)” value in assay [1] is recorded as “no effect, with results similar to PBS”.

With “ASN-ASN-VAL-SER-GLN-LYS-TRP-GLN-GLN-ARG-LEU-ILE-GLY-GLY-GLY-SER (NNVSQKWQQRLIGGGS; listed as Homo sapiens) [Peptide L6]”, in assay [1], the “Effect on adherent BAEC (Experiment 1)” value was “the cells had lifted completely and most of the cells disappeared from the surface of the slides, leaving a lot of cell debris”. Moreover, in the assay with bone and bone marrow, the “PERCENT FREQUENCY” value was 17.9% and the “PHAGE SEQUENCE FREQUENCY (number of times the sequence was found in a group of plaques)” value (“PHAGE SEQUENCE FREQUENCY” below) was 5/28. In addition, the “Effectiveness at stimulating osteogenesis and cortical bone repair” value (from here on “Effectiveness”) in assay [2] was “most effective at stimulating osteogenesis and cortical bone repair”.

As to “GLY-ILE-HIS-VAL-PRO-TRP-MET-PRO-PRO-VAL-ALA-PHE-GLY-GLY-GLY-SER (GIHVPWMPPVAFGGGS; listed as Homo sapiens) [Peptide L11]”, in the assay on bone and bone marrow, the “PERCENT FREQUENCY” value came to 3.3% and the “PHAGE SEQUENCE FREQUENCY” value is listed as 1/30.

For “LYS-GLU-ILE-PRO-PRO-ILE-PRO-LEU-LEU-ALA-PRO-SER-GLY-GLY-GLY-SER (KEIPPIPLLAPSGGGS; listed as Homo sapiens) [Peptide L5]”, in assay [1], the “Effect on adherent BAEC (Experiment 1)” value was “the cells had lifted completely and most of the cells disappeared from the surface of the slides, leaving a lot of cell debris”. In addition, in the assay with bone and bone marrow, the “PERCENT FREQUENCY” value is 17.9% and the “PHAGE SEQUENCE FREQUENCY” value is given as 5/28. Further, in assay [2], the “Histological appearance of repair tissue in the defect” value is “while some ossification and cortical bone regeneration has occurred, considerable amounts of gelfoam remains in the defect”; the “Effectiveness” value is listed as “virtually no stimulatory effect on osteogenesis”.

Turning to “SER-SER-THR-LEU-LYS-THR-PHE-PHE-GLY-PHE-PRO-ASP-GLY-GLY-GLY-SER (SSTLKTFFGFPDGGGS; listed as Homo sapiens) [Peptide L14]”, the “Effect on adherent BAEC (Experiment 1)” value in assay [1] is given as “no effect, with results similar to PBS”. In the assay with bone and bone marrow, the “PERCENT FREQUENCY” value was 40.0% and the “PHAGE SEQUENCE FREQUENCY” value is recorded as 12/30. In addition, in assay [2], the “Histological appearance of repair tissue in the defect” value is “a considerable amount of gelfoam remaining in the defects, with thinner and more loosely organized cortical bone”; the “Effectiveness” value was “least effective for cortical bone repair”.

Source of the values: patent US7871978B2, “Bone tropic peptides” (University of Virginia Patent Foundation, priority 2004, dated 2011).
